US4101538A, “Nonapeptides and methods for their production” (Warner-Lambert, priority 1977, dated 1978)
Where a SMILES comes first, the peptide text is derived from it. The star is where a group is joined. Cbz = O=C(OCc1ccccc1)*; Bn = c1ccc(C*)cc1

System: LRF (luteinizing hormone releasing factor) induced luteinizing hormone (LH) release
Assay: In vitro LRF antagonist test in rat anterior pituitary cell cultures
Assay type: cell-based
Description: Nonapeptides of this invention were screened for LRF antagonist activity in vitro using rat anterior pituitary cell cultures as described by Vale et. al. [Endocrinology, 91, 562 (1972)]. The inhibition of LRF (luteinizing hormone releasing factor) induced luteinizing hormone (LH) release into the culture medium is the endpoint in this in vitro bioassay.

Compound | % LH Release Inhibition (compound molar conc. 1×10^-7) [%] | LH Value (compound molar conc. 1×10^-7, LH released into culture medium) [ng/mL] | % LH Release Inhibition (compound molar conc. 1×10^-8) [%] | LH Value (compound molar conc. 1×10^-8, LH released into culture medium) [ng/mL] | LH Value (LRF alone, molar conc. 5×10^-10) [ng/mL]
NC(=O)CC[C@H](NC(=O)OCc1ccccc1)C(=O)N[C@@H](Cc1c[nH]c2ccccc12)C(=O)N[C@@H](CO)C(=O)N[C@@H](Cc1ccc(O)cc1)C(=O)N[C@@H](Cc1c[nH]c2ccccc12)C(=O)N1CCC[C@H]1C(=O)N1CCC[C@H]1C(=O)N[C@@H](Cc1ccc(OCc2ccccc2)cc1)C(=O)N[C@@H](COCc1ccccc1)C(N)=O [N^α -benzyloxycarbonyl-L-glutaminyl-L-tryptophyl-L-seryl-L-tyrosyl-L-tryptophyl-L-prolyl-L-prolyl-O-benzyl-L-tyrosyl-O-benzyl-L-serinamide] (Cbz-QWSYWPPY(Bn)S(Bn)-NH2) | 29 | 52.33 | 37 | 47.20 | 
LRF Control: luteinizing hormone releasing factor, also referred to as luteinizing hormone releasing hormone (LH-RH); stimulates secretion of luteinizing hormone (QHWSYGLRPG; Gonadoliberin-1; UniProt P01148 24-33, looked up) [reference compound] |  |  |  |  | 69.51
